Experimental data from patent US20230158116A1, “USE OF HUMAN AMYLIN ANALOG POLYPEPTIDES FOR PROVIDING SUPERIOR GLYCEMIC CONTROL TO TYPE 1 DIABETICS” (I2O Therapeutics, Inc., priority 2020, published 2023).
Read-outs that look alike come from different tables or passages of the source. Starred links: 1 amine or outer side, 2 acyl side, 3 side chain; linkers in the order of their positions; H or OH if unused. Positions of bridges follow the written chain, without caps; N, C: chain ends. Residues, ends and D or L forms follow the SMILES beside them. Groups on a side chain read outwards from the residue. No end group written: not given here. *: point of attachment. C20 diacid = O=C(O)CCCCCCCCCCCCCCCCCCC(=O)*; γGlu = O=C(O)[C@H](CCC(=O)[*:2])N[*:1]

Legend:
[1] = Half-life of compound A2 in the rat; conditions: in vivo, read-out: 0% of compound A2 (half-life)
Description: (§1) Following at least 1 week of insulin dose stabilization, animals are entered into each of 5 supplemental treatments comprising administration of the long-acting amylin agonist, compound A2, at doses of 1, 3, 10, 30 or 100 μg/day as a single daily injection, in addition to the fixed daily Levemir dose. (Alternatively, these studies could utilize relatively short-acting pramlintide as an amylin analog.) The […] is 32-37 hours in the rat, similar to that of albumin-bound insulin detemir. Daily dosing of each therefore maintains relatively constant concentrations of each, and a relatively ratio of concentrations.

[2] = in vivo; cited from earlier work
[3] = cited from earlier work
[4] = cited from earlier work; remark: listed apart in the source
[5] = type: in vivo, rat (male Wistar); parameters: hypo avoidance index (benefit index; below 70 mg/dL weighted 5× vs over 180 mg/dL): scale not given here; hazard index: time above 180 mg/dL (hyperglycemic) / benefit index: time in range (above 70, below 180 mg/dL): unit not given here; conditions: for benefit index: time in range (above 70, below 180 mg/dL) / hazard index: time above 180 mg/dL (hyperglycemic) / hypo avoidance index (benefit index; below 70 mg/dL weighted 5× vs over 180 mg/dL): STZ rat, A2 0 μg/kg/day
Excerpt: Male Wistar rats are implanted intraperitoneally (sensor in abdominal aorta) with an HD-XG continuous glucose monitor (Data Sciences, St Paul, Minn.) (Brockway, Tiesma et al. 2015). This system allows up to 8 weeks of continuous capture of blood glucose concentrations.
Upon recovery from surgery and resumption of normal food intake, capture of glucose readings begins so as to include at least 4 days of non-diabetic record for each rat. To induce insulinopenic (type 1) diabetes, rats are fasted overnight and administered an intravenous dose of streptozotocin (STZ) of 60 mg/kg (Gajdosik, Gajdosikova et al. 1999). Glucose readings from the telemetry system are used to enhance survival post-STZ, by s.c. glucose supplementation in the event of hypoglycemia that often accompanies an initial release of insulin following β-cell toxicity. The telemetry is then used to affirm hyperglycemia (mean plasma glucose >300 mg/dL), and to determine if a second STZ treatment is necessary for rats that are not sufficiently hyperglycemic.
Upon becoming hyperglycemic, animals are treated daily with a sliding-scale of a long-acting insulin (insulin detemir, Levemir NOVO) so as to eliminate urinary ketones, but maintain 5% glycosuria, as determined by daily KETOSTIX and GLUCOSTIX testing, respectively (Young, Crocker et al. 1991).
Animals are assigned to one of 3 cohorts of insulin dosing (n=5/cohort). One cohort is defined as that necessary to attain −ve urinary ketones and +ve urinary glucose, as just described, but not greater than a total dose of 2 U/day. A second cohort is a high insulin dose cohort, 3× greater than cohort 1. A third cohort is one where insulin dose is 50% of that of cohort 1.
as §1
Each dose level of compound A2 is maintained for 1 week, during which glucose data is captured via telemetry. The order in which doses of compound A2 are changed is determined by a 5×5 orthogonal latin square. That is, each animal receives each dose of compound A2, but in an order that is unique relative to that of the other 4 animals in the same insulin cohort. This treatment balances out time-dependent or order-dependent changes in metabolic status of each animal, such as regeneration of insulin secretory capacity, and accommodation to the effects of an amylin agonist.
Plasma glucose values from the final 4 days of each insulin/A2 combination are aggregated and analyzed according to frequency of occurrence (cumulative distributions). Analogous to the time-in-range (TIR) assessment of clinical benefit (sometimes termed “clinical utility”) in human diabetes trials (Beck, Bergenstal et al. 2018), glucose values are categorized within bins (<70, 70-180, and >180 mg/dL). Further cuts (>250 mg/dL) are also made. Parametric descriptors of glucose values are also derived for each combination (mean and SD values, linear and logarithmic, where data are not normal but are log-normal).
Higher benefit (i.e., utility) is indicated when TIR is greatest, with the proviso that values below 70 mg/dL are not more frequent. Higher benefit is also indicated when the SD for the distribution of glucose values is least.

| Compound | Duration ([3]; in vivo) | Peak ([3]; in vivo) [h] | Onset ([3]; in vivo) [min] | other results |
| --- | --- | --- | --- | --- |
| CC[C@H](C)[C@H](NC(=O)[C@@H]1CCCN1C(=O)CNC(=O)[C@H](Cc1ccccc1)NC(=O)[C@H](CC(N)=O)NC(=O)[C@H](CC(N)=O)NC(=O)[C@H](CO)NC(=O)[C@H](CO)NC(=O)[C@H](CCCCN)NC(=O)[C@H](Cc1c[nH]cn1)NC(=O)[C@H](CC(C)C)NC(=O)[C@H](CCC(=O)O)NC(=O)[C@H](CC(N)=O)NC(=O)[C@H](C)NC(=O)[C@H](CC(C)C)NC(=O)[C@H](CCCNC(=N)N)NC(=O)[C@H](CCC(N)=O)NC(=O)[C@@H](NC(=O)[C@H](C)NC(=O)[C@@H]1CSSC[C@H](NC(=O)[C@@H](N)CCCCNC(=O)CC[C@H](NC(=O)CC[C@H](NC(=O)CCCCCCCCCCCCCCCCCCC(=O)O)C(=O)O)C(=O)O)C(=O)N[C@@H](CC(N)=O)C(=O)N[C@@H]([C@@H](C)O)C(=O)N[C@@H](CO)C(=O)N[C@@H]([C@@H](C)O)C(=O)N1)[C@@H](C)O)C(=O)N[C@@H](CC(C)C)C(=O)N1CCC[C@H]1C(=O)N1CCC[C@H]1C(=O)N[C@H](C(=O)N[C@@H](CCCCN)C(=O)N[C@H](C(=O)NCC(=O)N[C@@H](CO)C(=O)N[C@@H](CCC(=O)O)C(=O)N[C@H](C(=O)N[C@@H](Cc1ccc(O)cc1)C(N)=O)[C@@H](C)O)C(C)C)[C@@H](C)O [Compound A2] (H-K([γGlu-γGlu-C20 diacid])CNTSTCATQRLANELHKSSNNFGPILPPTKVGSETY-NH2; disulfide 2-7) | – | – | – | half-life [1]: 32 to 37 h |
| Davalintide | – | – | – | half-life [2]: about 26 minutes |
| aspart [Fiasp ® (aspart)] | 3 to 5 h | 1 to 3 | – | Onset, sooner than Rapid Acting Insulins ([3]; relative to rapid-acting insulins): about 5 mins |
| aspart [Novo's Novolog ® (aspart)] | 3 to 5 h | 0.667 to 0.833 | 10 to 20 | – |
| glulisine [Sanofi's Apidra ® (glulisine)] | – | 0.5 to 1.5 | 20 to 30 | – |
| human amylin: 37-residue polypeptide hormone co-secreted with insulin from pancreatic β-cells (SEQ ID NO: 5) (KCNTATCATQRLANFLVHSSNNFGAILSSTNVGSNTY; disulfide 2-7; listed as Homo sapiens) | – | – | – | half-life ([4]; in humans): about 13 minutes; half-life in serum ([4]; serum): about 13 minutes |
| insulin degludec [Novo's Tresiba ® (insulin degludec)] | 42 h | – | 30 to 90 | Peak ([3]; result in words): No peak time |
| insulin detemir [Novo's Levemir ® (insulin detemir)] | Up to 24 hours | 6 to 8 | 60 to 120 | benefit index: time in range (above 70, below 180 mg/dL) ([5]; insulin 1 U/day): 39.5; hazard index: time above 180 mg/dL (hyperglycemic) ([5]; insulin 1 U/day): 60.2; hypo avoidance index (benefit index; below 70 mg/dL weighted 5× vs over 180 mg/dL) ([5]; insulin 1 U/day): 33.8; benefit index: time in range (above 70, below 180 mg/dL) ([5]; insulin 2 U/day): 64.9; hazard index: time above 180 mg/dL (hyperglycemic) ([5]; insulin 2 U/day): 29.4; hypo avoidance index (benefit index; below 70 mg/dL weighted 5× vs over 180 mg/dL) ([5]; insulin 2 U/day): 41.6; benefit index: time in range (above 70, below 180 mg/dL) ([5]; insulin 6 U/day): 78.9; hazard index: time above 180 mg/dL (hyperglycemic) ([5]; insulin 6 U/day): 2.8; hypo avoidance index (benefit index; below 70 mg/dL weighted 5× vs over 180 mg/dL) ([5]; insulin 6 U/day): 5.7; blood glucose values within range 70-180 mg/dL (TIR) ([5]; post-STZ rats, 2 U/day Levemir, no A2): 64.9%; blood glucose values <70 mg/dL ([5]; rat, in vivo): 5.8%; proportion of time spent below 70 mg/dL ([5]; rat, in vivo): markedly increase |
| insulin glargine | 20 to 24 h | – | – | Peak ([3]; result in words): No peak time. |
| lispro [Lilly's Humalog ® (lispro)] | 3 to 5 h | 0.5 to 1.5 | 15 to 30 | – |
| recombinant insulin [Novo's Novolin ® (recombinant insulin)] | 5 to 8 h | 2 to 5 | – | – |
| velosulin: human insulin for use in an insulin pump, short-acting | 2 to 3 h | 1 to 2 | – | – |
